Reference: ChEMBL document CHEMBL5214910, “Rational Design of Dipicolylamine-Containing Carbazole Amphiphiles Combined with Zn2+ as Potent Broad-Spectrum Antibacterial Agents with a Membrane-Disruptive Mechanism” (J Med Chem, 2021)
Converted amounts (≈) assume the structure as drawn.

Assays:
[1] = test system: Staphylococcus aureus; test: Antibacterial activity against Staphylococcus aureus ATCC 29213 assessed as inhibition of bacterial growth incubated for 24 hrs in the presence of 0.39 ug/mL Zn2+ by Muller hinton broth based dilution assay; assay type: functional
[2] = test system: Staphylococcus aureus; test: Antibacterial activity against Staphylococcus aureus ATCC 29213 assessed as inhibition of bacterial growth by measuring salt resistance incubated for 24 hrs in the presence of 12.5 ug/ml Zn2+ and 175.5 ug/ml K+ by Muller hinton broth based dilution assay; assay type: functional
[3] = test system: Escherichia coli; test: Antibacterial activity Escherichia coli ATCC 25922 assessed as inhibition of bacterial growth incubated for 24 hrs in the presence of 0.78 ug/mL Zn2+ by Muller hinton broth based dilution assay; assay type: functional
[4] = test system: Lipopolysaccharide (LPS); test: Displacement of BODIPY-TR-cadaverin from Pseudomonas aeruginosa Lipopolysaccharide at 4 times of MIC incubated for 30 mins in the presence of 12.5 ug/ml Zn2+ by fluorescence based microplate reader analysis relative to control
[5] = test system: Staphylococcus aureus; test: Antibacterial activity against Methicillin-resistant Staphylococcus aureus NCTC10442 assessed as inhibition of bacterial growth by measuring salt resistance incubated for 24 hrs in the presence of 12.5 ug/ml Zn2+ and 175.5 ug/ml K+ by Muller hinton broth based dilution assay; assay type: functional
[6] = test system: Staphylococcus aureus; test: Antibacterial activity against Methicillin-resistant Staphylococcus aureus N315 assessed as inhibition of bacterial growth incubated for 24 hrs by Muller hinton broth based dilution assay; assay type: functional
[7] = test system: Acinetobacter baumannii; test: Antibacterial activity against Acinetobacter baumannii R2889 assessed as inhIbition of bacterial growth incubated for 24 hrs by Muller hinton broth based dilution assay; assay type: functional
[8] = test system: Lipopolysaccharide (LPS); test: Displacement of BODIPY-TR-cadaverin from Pseudomonas aeruginosa Lipopolysaccharide at 4 times of MIC incubated for 30 mins by fluorescence based microplate reader analysis relative to control
[9] = test system: Lipopolysaccharide (LPS); test: Displacement of BODIPY-TR-cadaverin from Pseudomonas aeruginosa Lipopolysaccharide at 1 times of MIC incubated for 30 mins by fluorescence based microplate reader analysis relative to control
[10] = test system: Staphylococcus aureus; test: Antibacterial activity against Staphylococcus aureus ATCC 29213 assessed as inhibition of bacterial growth incubated for 24 hrs in the presence of 50 ug/mL Zn2+ by Muller hinton broth based dilution assay; assay type: functional
[11] = test system: Staphylococcus aureus; test: Antibacterial activity against Methicillin-resistant Staphylococcus aureus NCTC10442 assessed as inhibition of bacterial growth incubated for 24 hrs in the presence of 50 ug/mL Zn2+ by Muller hinton broth based dilution assay; assay type: functional
[12] = test system: Lipopolysaccharide (LPS); test: Displacement of BODIPY-TR-cadaverin from Pseudomonas aeruginosa Lipopolysaccharide at 2 times of MIC incubated for 30 mins in the presence of 12.5 ug/ml Zn2+ by fluorescence based microplate reader analysis relative to control
[13] = test system: Staphylococcus aureus; test: Antibacterial activity against Staphylococcus aureus ATCC 29213 in cyclophosphamide immunosuppressed C57BL/6 mouse model of bacterial keratitis assessed as log reduction in viable bacterial count in infected cornea at 0.5 % pre-infected with bacteria for 24 hrs followed by topical administration of compound four times a day for 3 days in the presence of 12.5 ug/ml of Zn2+; assay type: functional; conditions: route top, time 3 day
[14] = test system: Staphylococcus aureus; test: Antibacterial activity against Methicillin-resistant Staphylococcus aureus NCTC10442 assessed as inhibition of bacterial growth by measuring salt resistance incubated for 24 hrs in the presence of 12.5 ug/ml Zn2+ and 3220 ug/ml Na+ by Muller hinton broth based dilution assay; assay type: functional
[15] = test system: Acinetobacter baumannii; test: Antibacterial activity against Acinetobacter baumannii ATCC 17978 assessed as inhIbition of bacterial growth incubated for 24 hrs in the presence of 12.5 ug/mL Zn2+ by Muller hinton broth based dilution assay; assay type: functional
[16] = test system: Staphylococcus aureus; test: Antibacterial activity against Staphylococcus aureus ATCC 29213 assessed as log reduction in bacterial count at 8 times of MIC incubated for 30 mins in the presence of 12.5 ug/ml Zn2+ by Muller hinton agar based time kill assay; assay type: functional; conditions: 0.5 h
[17] = test system: Staphylococcus aureus; test: Antibacterial activity against Staphylococcus aureus ATCC 29213 assessed as inhibition of bacterial growth incubated for 24 hrs by Muller hinton broth based dilution assay; assay type: functional
[18] = test system: Acinetobacter baumannii; test: Antibacterial activity against Acinetobacter baumannii ATCC 17978 assessed as inhibition of bacterial growth by measuring salt resistance incubated for 24 hrs in the presence of 12.5 ug/ml Zn2+ and 100 ug/ml […] by Muller hinton broth based dilution assay; assay type: functional
[19] = test system: Lipopolysaccharide (LPS); test: Displacement of BODIPY-TR-cadaverin from Pseudomonas aeruginosa Lipopolysaccharide at 8 times of MIC incubated for 30 mins in the presence of 12.5 ug/ml Zn2+ by fluorescence based microplate reader analysis relative to control
[20] = test system: Pseudomonas aeruginosa; test: Antibacterial activity Pseudomonas aeruginosa ATCC 9027 assessed as inhibition of bacterial growth incubated for 24 hrs by Muller hinton broth based dilution assay; assay type: functional
[21] = test system: Escherichia coli; test: Antibacterial activity Escherichia coli ATCC 25922 assessed as inhibition of bacterial growth incubated for 24 hrs in the presence of 12.5 ug/mL Zn2+ by Muller hinton broth based dilution assay; assay type: functional
[22] = test system: Staphylococcus aureus; test: Antibacterial activity against Methicillin-resistant Staphylococcus aureus NCTC10442 assessed as inhibition of bacterial growth by measuring salt resistance incubated for 24 hrs in the presence of 12.5 ug/ml Zn2+ and 24.3 ug/ml Mg2+ by Muller hinton broth based dilution assay; assay type: functional
[23] = test system: Staphylococcus aureus; test: Antibacterial activity against Methicillin-resistant Staphylococcus aureus NCTC10442 assessed as inhibition of bacterial growth incubated for 24 hrs by Muller hinton broth based dilution assay; assay type: functional
[24] = test system: Acinetobacter baumannii; test: Antibacterial activity against Acinetobacter baumannii R2889 assessed as inhIbition of bacterial growth incubated for 24 hrs in the presence of 12.5 ug/mL Zn2+ by Muller hinton broth based dilution assay; assay type: functional
[25] = test system: Escherichia coli; test: Antibacterial activity Escherichia coli ATCC 25922 assessed as inhibition of bacterial growth incubated for 24 hrs in the presence of 6.25 ug/mL Zn2+ by Muller hinton broth based dilution assay; assay type: functional
[26] = Hemolytic activity in rabbit RBC incubated for 1 hrs by fluorescence based microplate reader assay; assay type: toxicity, cell-based, Oryctolagus cuniculus, Erythrocyte; conditions: rabbit red blood cells (erythrocytes)
[27] = test system: Escherichia coli; test: Antibacterial activity against Escherichia coli ATCC 25922 assessed as inhibition of bacterial growth by measuring salt resistance incubated for 24 hrs in the presence of 12.5 ug/ml Zn2+ and 100 ug/ml Ca2+ by Muller hinton broth based dilution assay; assay type: functional
[28] = test system: Escherichia coli; test: Antibacterial activity against Escherichia coli ATCC 25922 assessed as log reduction in bacterial count at 8 times of MIC incubated for 30 mins in the presence of 12.5 ug/ml Zn2+ by Muller hinton agar based time kill assay; assay type: functional; conditions: 0.5 h
[29] = test system: Acinetobacter baumannii; test: Antibacterial activity against Acinetobacter baumannii ATCC 17978 assessed as inhIbition of bacterial growth incubated for 24 hrs by Muller hinton broth based dilution assay; assay type: functional
[30] = test system: Staphylococcus aureus; test: Antibacterial activity against Methicillin-resistant Staphylococcus aureus NCTC10442 assessed as inhibition of bacterial growth incubated for 24 hrs in the presence of 0.39 ug/mL Zn2+ by Muller hinton broth based dilution assay; assay type: functional
[31] = test system: Lipopolysaccharide (LPS); test: Displacement of BODIPY-TR-cadaverin from Pseudomonas aeruginosa Lipopolysaccharide at 16 times of MIC incubated for 30 mins in the presence of 12.5 ug/ml Zn2+ by fluorescence based microplate reader analysis relative to control

For `CC(C)=CCn1c2ccccc2c2c(OCC(O)CN(Cc3ccccn3)Cc3ccccn3)cccc21` (stereo unspecified), the MIC [1] was 3.12 µg/mL, the MIC [2] was 1.56 µg/mL and the MIC [3] was 6.25 µg/mL. The Activity [4] was 59.5%, the MIC [5] was 1.56 µg/mL and the MIC [6] was 1.56 µg/mL (≈ 3.08 µM). It also gave an MIC [7] of 3.12 µg/mL (≈ 6.17 µM), an Activity [8] of -0.56% and an Activity [9] of -0.28%. It also gave an MIC [10] of 0.78 µg/mL, an MIC [11] of 0.78 µg/mL and an Activity [12] of 39.1%. For the same molecule, the “log(activity)” value [13] was 6.5, the MIC [14] was 1.56 µg/mL and the MIC [15] was 0.78 µg/mL. For the same molecule, the “log(activity)” value [16] was 4.22, the MIC [17] was 3.12 µg/mL (≈ 6.17 µM) and the MIC [18] was 3.12 µg/mL. The Activity [19] was 83.4%, the MIC [20] was > 50 µg/mL and the MIC [21] was 1.56 µg/mL. The MIC [22] was 1.56 µg/mL, the MIC [23] was 1.56 µg/mL (≈ 3.08 µM) and the MIC [24] was 1.56 µg/mL. The MIC [25] was 1.56 µg/mL, the HC50 at 1 h [26] was > 200 µg/mL and the MIC [27] was 6.25 µg/mL. The “log(activity)” value [28] was 3.59, the MIC [29] was 3.12 µg/mL (≈ 6.17 µM) and the MIC [30] was 1.56 µg/mL. The Activity [31] was 91%.
